Legend:
[1] = test system: Fusarium culmorum; test: Protection of seedlings against plant pathogenic seed fungus by seed treatment (wheat); assay type: in vivo; settings: wheat seed infested with Fusarium culmorum; 3 g composition (10% by weight in kaolin) per kg of seed; after three weeks, 8°-12° C.; untreated 67
Description: Test with respect to the protection of seedlings against a plant pathogenic seed fungus, namely Fusarium culmorum, by means of a seed treatment.
Wheat seed, infested with Fusarium culmorum, is treated with the substance to be tested in the form of a composi tion in a quantity of 3 g per kg of seed. The composition is obtained by pulverising the substance to be tested and then intimately mixing with kaolin in a concentration of 10% by weight. The seed thus treated is sown in a tray containing soil which is placed in a Wisconsin tank with a bottom temperature of 8°-12° C. After three weeks the number of emerged and healthy plants is determined. The emergence of healthy plants from untreated seed serves as control. For comparison, the known substances 2-methylsulphinyl-4-methyl-5-nitrothiazole (a), 2-methylsulphinyl-3-nitrothiophene (b) and 2-ethylsulphinyl-3-nitro-5-acetylthiophene (c) mentioned hereinbefore are also tested. In the examples, the numbers of the compounds refer to the specification.

[2] = test system: Fusarium culmorum; test: In vitro test on activity against Fusarium culmorum; assay type: cell-based; settings: read-out: growth inhibition of the fungus
[3] = test system: Pythium spp.; test: Protection of seedlings against plant-pathogenic soil fungus by seed treatment (beet); assay type: in vivo; settings: after 3 weeks, 18°-22° C., untreated 72
Description: Test with respect to the protection of seedlings against a plant-pathogenicsoil fungus, namely Pythium spp., by means of a seed treatment.
The compounds to be tested are processed to compositions by pulverising them and then mixing them intimately with kaolin in the desired concentration (see Table B). Beet seed is treated with these compositions in a quantity of 6 g of composition per kg of seed and then sown in trays with soil which was seriously infested with Pythium spp. After 3 weeks in a glass-house at 18°-22° C. and a relative humidity of 70-100%, the percentage of non-emerged and diseased seedlings (damping-off) is determined. The results are recorded in Table B. For comparison, the known substance 2-methylsulphinyl-4-methyl-5-nitrothiazole(a) is also tested.

[4] = Acute oral toxicity (lethal dose) in male mice; settings: mouse, in vivo, acute mortality, mg/kg of body weight
Description: Toxicity with respect to warm-blooded living beings.
The LD50 is determined by orally administering the substance to be tested to male mice and determining the acute mortality. In Table C below, the LD50 is recorded in mg/kg of body weight.
For comparison, the known compound (b) (see EXAMPLE XV) is also tested.

[5] = test system: Leptosphaeria nodorum; test: In vitro test on activity against Leptosphaeria nodorum; assay type: cell-based; settings: Parastagonospora nodorum, read-out: growth inhibition of the fungus
Description: (§1) The compound to be tested is processed in a culture medium consisting of 1% by weight of glucose, 0.2% by weight of a yeast extract (marmite), 0.5% by weight of a protein (pepton), 2.5% by weight of agar-agar, and 95.8% by weight of water, in petri dishes in concentrations of 3 and 10 ppm. The petri dishes are inoculated with the plant-pathogenic fungus Pyrenophora graminea and then kept at a temperature of 20° C. After 48 hours the growth-inhibiting activity of the compounds is determined visually. For comparison, the known substance (b) (see EXAMPLE XV) is also tested.
Compounds according to the invention are tested on i Leptosphaeria nodorum in the same manner as described in EXAMPLE XIX.

[6] = test system: Pythium splendens; test: In vitro test on activity against Pythium splendens; assay type: cell-based; settings: Globisporangium splendens, read-out: growth inhibition of the fungus
[7] = test system: Pyrenophora graminea; test: In vitro test on activity against Pyrenophora graminea; assay type: cell-based; settings: 48 hours, 20° C., read-out: % growth inhibition of the fungus
Description: In vitro test on activity against Pyrenophora graminea.
as §1

[8] = test system: soil-borne and seed-borne pathogenic micro-organisms; test: Fungicidal activity in practice (general statement); settings: in words
[9] = test system: Rhizoctonia solani; test: In vitro test on activity against Rhizoctonia solani; assay type: cell-based; settings: read-out: growth inhibition of the fungus
Description: as §1, with “in petri dishes in concentrations of 3 and 10 ppm.” left out
Compounds according to the invention are tested on Rhizoctonia solani in the same manner as described in EXAMPLE XIX.

[10] = test system: warm-blooded living beings; test: Toxicity with respect to warm-blooded living beings (general statement); settings: in words
[11] = 600 mg of active substance per kg of seed
[12] = 1200 mg of active substance per kg of seed

SMILES | Percentage of emerged, healthy plants [1] | inhibition at 30 ppm [2] | percentage damping-off [3, 11] | percentage damping-off [3, 12] | LD50 [4] | inhibition at 30 ppm [5] | inhibition at 10 ppm [6] | inhibition at 3 ppm [7] | inhibition at 10 ppm [7] | activity [8] | inhibition at 30 ppm [9] | toxicity with respect to warm-blooded living beings [10]
CC[S+]([O-])c1sc(C#N)c(Cl)c1C#N (centres unmarked) [(7), 2-ethylsulphinyl-3,5-dicyano-4-chlorothiophene] | 98% | ≥ 75% | 17% | 17% | 400 mg/kg | ≥ 85% | ≥ 95% | 59% | 83% | – | – | –
Cc1nc([S+](C)[O-])sc1[N+](=O)[O-] (centres unmarked) [(a), 2-methylsulphinyl-4-methyl-5-nitrothiazole, reference compound] | 68% | – | 57% | 45% | – | – | – | – | – | insufficiently active | – | –
C[S+]([O-])c1sc(C#N)cc1C#N (centres unmarked) [(4), 2-methylsulphinyl-3,5-dicyanothiophene] | 90% | – | 10% | 9% | – | ≥ 85% | ≥ 95% | 66% | 84% | – | ≥ 75% | –
C[S+]([O-])c1sc(C#N)c(Sc2ccccc2)c1C#N (centres unmarked) [(85), 2-methylsulphinyl-3,5-dicyano-4-phenylthio-thiophene] | – | ≥ 75% | – | – | – | ≥ 85% | ≥ 95% | – | 73% | – | ≥ 75% | –
CC[S+]([O-])c1sc2cc([N+](=O)[O-])ccc2c1C#N (centres unmarked) [(27), 2-ethylsulphinyl-3-cyano-6-nitro-benzothiophene] | 96% | ≥ 75% | 4% | 2% | – | ≥ 85% | ≥ 95% | – | – | – | ≥ 75% | –
CC(=O)c1sc([S+](C)[O-])c(C#N)c1Cl (centres unmarked) [(2), 2-methylsulphinyl-3-cyano-4-chloro-5-acetylthiophene] | 87% | ≥ 75% | 7% | 6% | – | ≥ 85% | ≥ 95% | 64% | 79% | – | ≥ 75% | –
C[S+]([O-])c1sc(C#N)c(Cl)c1C#N (centres unmarked) [(3), 2-methylsulphinyl-3,5-dicyano-4-chlorothiophene] | 91% | ≥ 75% | 6% | 5% | – | ≥ 85% | ≥ 95% | 57% | 80% | – | ≥ 75% | –
CCC[S+]([O-])c1sc(C#N)c(Cl)c1C#N (centres unmarked) [(33), 2-n-propylsulphinyl-3,5-dicyano-4-chlorothiophene] | – | ≥ 75% | – | – | 246 mg/kg | ≥ 85% | ≥ 95% | – | 83% | – | ≥ 75% | –
CC[S+]([O-])c1sc(C(C)=O)c(N)c1C#N (centres unmarked) [(10), 2-ethylsulphinyl-3-cyano-4-amino-5-acetylthiophene] | 98% | – | 10% | 9% | 141 mg/kg | ≥ 85% | ≥ 95% | – | – | – | – | –
CCCC[S+]([O-])c1sc(C#N)c(Cl)c1C#N (centres unmarked) [(43), 2-n-butylsulphinyl-3,5-dicyano-4-chlorothiophene] | – | ≥ 75% | – | – | 246 mg/kg | ≥ 85% | ≥ 95% | – | 72% | – | ≥ 75% | –
C[S+]([O-])c1sccc1[N+](=O)[O-] (centres unmarked) [(b), 2-methylsulphinyl-3-nitrothiophene, reference compound] | 75% | – | – | – | 31.6 mg/kg | – | – | 0% | 37% | leaves to be desired in practice | – | undesired toxicity
CC[S+]([O-])c1sc(C(C)=O)cc1[N+](=O)[O-] (centres unmarked) [(c), 2-ethylsulphinyl-3-nitro-5-acetylthiophene] | 74% | – | – | – | – | – | – | – | – | leaves to be desired in practice | – | undesired toxicity
CCCCCCCC[S+]([O-])c1sc(C#N)c(Cl)c1C#N (centres unmarked) [(36), 2-n-octylsulphinyl-3,5-dicyano-4-chlorothiophene] | – | ≥ 75% | – | – | – | ≥ 85% | ≥ 95% | – | – | – | ≥ 75% | –
CC[S+]([O-])c1sc(C#N)c(OC)c1C#N (centres unmarked) [(13), 2-ethylsulphinyl-3,5-dicyano-4-methoxythiophene] | 90% | ≥ 75% | 3% | 1% | 130 mg/kg | ≥ 85% | ≥ 95% | – | – | – | – | –
C[S+]([O-])c1sc(C(=O)c2ccc(Cl)cc2)cc1C#N (centres unmarked) [(52), 2-methylsulphinyl-3-cyano-5-(4-chlorobenzoyl)thiophene] | – | ≥ 75% | – | – | – | – | ≥ 95% | – | 71% | – | ≥ 75% | –
CCCC[S+]([O-])c1sc(C(C)=O)c(Cl)c1C#N (centres unmarked) [(39), 2-n-butylsulphinyl 3-cyano-4-chloro-5-acetylthiophene] | – | ≥ 75% | – | – | – | – | ≥ 95% | – | 81% | – | ≥ 75% | –
CC[S+]([O-])c1sc(C#N)cc1C#N (centres unmarked) [(8), 2-ethylsulphinyl-3,5-dicyanothiophene] | 92% | – | 16% | 12% | 119 mg/kg | – | ≥ 95% | 49% | 72% | – | – | –

Reference: US4994485A, “Thio compounds having fungicidal activity” (Duphar International Research B.V., priority 1986, dated 1991)
